Assay results: patent publication EP4722209A1 (Beijing Shenogen Pharma Group, priority 2023, dated 2024)

What follows are molecules tested against T1, ERα (Homo sapiens, UniProt P03372) (assay: ER degradation activity in MCF-7 cells (Western blot, grayscale intensity)). Settings: 6 hours treatment, 1 nM to 100 nM, concentration required to degrade 50% of the target protein.
T1 construct: host or cells: MCF-7
T1 sequence (P03372 1-595): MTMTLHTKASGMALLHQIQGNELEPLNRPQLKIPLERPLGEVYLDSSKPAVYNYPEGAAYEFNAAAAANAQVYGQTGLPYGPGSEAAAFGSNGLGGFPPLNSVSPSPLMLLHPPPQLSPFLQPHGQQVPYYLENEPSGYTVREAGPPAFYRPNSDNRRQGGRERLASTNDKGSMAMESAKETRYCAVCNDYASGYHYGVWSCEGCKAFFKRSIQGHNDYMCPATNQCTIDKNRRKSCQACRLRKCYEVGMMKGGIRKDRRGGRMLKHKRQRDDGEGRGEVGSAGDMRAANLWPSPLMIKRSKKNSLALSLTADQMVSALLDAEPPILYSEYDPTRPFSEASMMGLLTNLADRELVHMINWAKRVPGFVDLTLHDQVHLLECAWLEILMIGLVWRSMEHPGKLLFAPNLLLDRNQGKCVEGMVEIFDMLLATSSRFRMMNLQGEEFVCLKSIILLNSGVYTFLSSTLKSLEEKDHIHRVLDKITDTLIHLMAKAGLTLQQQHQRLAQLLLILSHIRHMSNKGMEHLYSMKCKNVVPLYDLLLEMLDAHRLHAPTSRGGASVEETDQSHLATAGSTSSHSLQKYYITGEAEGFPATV
Format: cell-based
Method: ERα-positive human breast cancer cells MCF-7 (ATCC, HTB-22) were cultured with EMEM medium (ATCC, catalog number 30-2003) containing 10% fetal bovine serum (Thermo Fisher, catalog number 10099141) and 10 µg/mL bovine insulin in 25 cm^2 or 75 cm^2 plastic tissue culture flasks in a 37 °C incubator with 5% CO2. The cells were passaged 2 to 3 times per week. MCF-7 cells were seeded in 6-well plate at 1×10^6 cells/well with 1.8 mL culture medium per well, and cultured in a 37 °C incubator with 95% air and 5% CO2. After 24 hours, the test compounds were added: the compounds were serially diluted 10-fold in DMSO starting from 10 mM (dissolved in DMSO) to prepare gradient stock solutions. A complete culture medium containing 1% DMSO was prepared for further dilution, temporarily named as the "dilution buffer." Working solutions were prepared by diluting each stock solution with 99 times the volume of dilution buffer, that is, by adding 1 µL of the 10 mM stock solution to 99 µL of the dilution buffer and mixing thoroughly.
Finally, […] of the working solution was added to the cell-seeded culture plate. The final concentration of DMSO in the cell culture medium was 0.2%, and the final concentration of the test compounds ranged from 1 nM to 100 nM. The cells were then incubated at 37 °C for 6 hours.
The culture medium was removed, and the cells were washed twice with ice cold PBS. 1 mL of PBS was added to each well, and the cells were collected into EP tubes using a cell scraper, and centrifuged at 4 °C, 4000 rpm for 5 minutes. PBS was aspirated. Total protein was extracted using the Minute™ Mammalian Tissue/Cell Total Protein Extraction Reagent. The protein concentration was measured using the BCA protein assay kit. 30 µg of protein was taken and mixed with 5× SDS-PAGE loading buffer, boiled for 10 minutes, and cooled. The samples were loaded into wells of a precast gel, with constant voltage at 80 V for 30 minutes, and then the voltage was changed to 120 V after the samples entered the resolving gel. The "sandwich" (sponge - filter paper - gel - membrane - filter paper - sponge) was assembled for Bio-Rad's Transblot. Transfer was performed for 1 hour at 0.3 amp at 4 °C. The sample was blocked with 5% fat-free milk for 1 hour, and incubated with Estrogen Receptor alpha Antibody (Thermo Fisher, catalog number MA5-14104) overnight at 4 °C. The membrane was washed with TBST to remove non-specifically bound antibodies, and then incubated with goat anti-mouse IgG-HRP secondary antibody for 1 hour at room temperature, and was visualized using ECL. The protein degradation level was calculated by measuring the grayscale intensity.
The DC50 values (i.e., the concentration of the test compounds required to degrade 50% of the target protein) were calculated and shown in Table 1. A corresponds to a DC50 value below 10 nM, B corresponds to a DC50 value greater than 10 nM and less than 100 nM, and C corresponds to DC50 values greater than 100 nM. Table 1. The DC50 values of exemplary compounds in MCF-7 cells

Compared with CC1(C)CC(=C(c2ccc(N3CCC(CN4CCN(c5cccn6c(N7CCC(=O)NC7=O)cnc56)CC4)CC3)nc2)c2ccc3[nH]nc(F)c3c2)CC(C)(C)O1 [Compound 96, 1-(8-(4-((1-(5-((3-fluoro-1H-indazole-5-yl)(2,2,6,6-tetramethyltetrahydro-4H-pyran-4-ylidene)methyl)pyridin-2-yl)piperidin-4-yl)methyl)piperazin-1-yl)imidazole [1,2-a]pyridin-3-yl)dihydropyrimidine-2,4 (1H, 3H) - dione], CN(CC1CCN(c2ccc(C(=C3CC(C)(C)OC(C)(C)C3)c3ccc4[nH]nc(F)c4c3)cn2)CC1)C1CCN(c2cccn3c(N4CCC(=O)NC4=O)cnc23)CC1 [Compound 97] is higher in DC50: less than 10 nM for the first, 10 to 100 nM for the second.

Compared with CN(CC1CCN(c2ccc(C(=C3CC(C)(C)OC(C)(C)C3)c3ccc4[nH]nc(F)c4c3)cn2)CC1)C1CCN(c2ccn3c(N4CCC(=O)NC4=O)cnc3c2)CC1 [Compound 98], CC1(C)CC(=C(c2ccc(N3CCC(CN4CCN(c5ccc6c(c5)C(=O)N(C5CCC(=O)NC5=O)C6=O)CC4)CC3)nc2)c2ccc3[nH]nc(F)c3c2)CC(C)(C)O1 (stereo not drawn) [Compound 103] is lower in DC50: greater than 100 nM for the first, 10 to 100 nM for the second.

First: Cn1c(=O)n(C2CCC(=O)NC2=O)c2cccc(C3CCN(CC4CCN(c5ccc(C(=C6CC(C)(C)OC(C)(C)C6)c6ccc7[nH]nc(F)c7c6)cn5)CC4)CC3)c21 (stereo not drawn) [Compound 99]
Second: Cn1c(=O)n(C2CCC(=O)NC2=O)c2cccc(C#CCN3CCN(c4ccc(C(=C5CC(C)(C)OC(C)(C)C5)c5ccc6[nH]nc(F)c6c5)cn4)CC3)c21 (stereo not drawn) [Compound 101]
The DC50 of the first is lower: 10 to 100 nM for the first, greater than 100 nM for the second.

Cn1c(=O)n(C2CCC(=O)NC2=O)c2cccc(C#CCOC3CCN(c4ccc(C(=C5CC(C)(C)OC(C)(C)C5)c5ccc6[nH]nc(F)c6c5)cn4)CC3)c21 (stereo not drawn) [Compound 100] and CC1(C)CC(=C(c2ccc(N3CCC(N4CCN(c5ccc6c(c5)C(=O)N(C5CCC(=O)NC5=O)C6=O)CC4)CC3)nc2)c2ccc3[nH]nc(F)c3c2)CC(C)(C)O1 (stereo not drawn) [Compound 104] cannot be ordered by DC50: greater than 100 nM for the first, greater than 100 nM for the second.

Going from CC1(C)CC(=C(c2ccc3[nH]nc(F)c3c2)c2c(F)cc(N3CCN(CC4CCN(c5ccc6c(c5)C(=O)N(C5CCC(=O)NC5=O)C6=O)CC4)CC3)cc2F)CC(C)(C)O1 (stereo not drawn) [Compound 102] to CC1(C)CC(=C(c2ccc(N3CCN(C4CCN(c5ccc6c(c5)C(=O)N(C5CCC(=O)NC5=O)C6=O)CC4)CC3)nc2)c2ccc3[nH]nc(F)c3c2)CC(C)(C)O1 (stereo not drawn) [Compound 105], the DC50 falls from greater than 100 nM to less than 10 nM.

First: CC1(C)CC(=C(c2ccc(N3CCN(C4CN(c5ccc6c(c5)C(=O)N(C5CCC(=O)NC5=O)C6=O)C4)CC3)nc2)c2ccc3[nH]nc(F)c3c2)CC(C)(C)O1 (stereo not drawn) [Compound 106]
Second: CC1(C)CC(=C(c2ccc(N3CC4(CCC(N5CCN(c6ccc7c(c6)CN(C6CCC(=O)NC6=O)C7=O)CC5)CC4)C3)nc2)c2ccc3[nH]nc(F)c3c2)CC(C)(C)O1 (stereo not drawn) [Compound 109]
The DC50 of the first is higher: greater than 100 nM for the first, less than 10 nM for the second.

CC1(C)CC(=C(c2ccc(N3CCC(CN4CCN(c5cccc(NC6CCC(=O)NC6=O)c5)CC4)CC3)cc2)c2ccc3[nH]nc(F)c3c2)CC(C)(C)O1 (stereo not drawn) [Compound 107] and CC1(C)CC(=C(c2ccc(N3CCC(CN4CCN(c5ccc(NC6CCC(=O)NC6=O)c(F)c5)CC4)CC3)cc2)c2ccc3[nH]nc(F)c3c2)CC(C)(C)O1 (stereo not drawn) [Compound 115] cannot be ordered by DC50: greater than 100 nM for the first, greater than 100 nM for the second.

First: CC1(C)CC(=C(c2ccc(N3CCN(C4CCN(c5cccc(NC6CCC(=O)NC6=O)c5)CC4)CC3)cc2)c2ccc3[nH]ncc3c2)CC(C)(C)O1 (stereo not drawn) [Compound 108]
Second: CC1(C)CC(=C(c2ccc(N3CCC(CN4CCN(c5ccc6c(c5)CN(C5CCC(=O)NC5=O)C6=O)CC4)CC3)nc2)c2cccc(O)c2)CC(C)(C)O1 (stereo not drawn) [Compound 114]
The DC50 of the first is higher: greater than 100 nM for the first, 10 to 100 nM for the second.

Compared with CC1(C)CC(=C(c2ccc(N3CCC(CN4CCN(c5ccc6c(c5)CN(C5CCC(=O)NC5=O)C6=O)CC4)CC3)nc2)c2ccc3c(F)n[nH]c3c2)CC(C)(C)O1 (stereo not drawn) [Compound 112], CC1(C)CC(=C(c2ccc(N3CCC(CN4CCN(c5ccc6c(c5)CN(C5CCC(=O)NC5=O)C6=O)CC4)CC3)nc2)c2ccc3cncn3c2)CC(C)(C)O1 (stereo not drawn) [Compound 113] is higher in DC50: 10 to 100 nM for the first, greater than 100 nM for the second.
